From patent US20190062788A1, “LIPID NANOPARTICLE METHODS AND COMPOSITIONS FOR PRODUCING ENGINEERED ERYTHROID CELLS” (RUBIUS THERAPEUTICS, INC., priority 2017, published 2019)
No end group written: not given here. *: point of attachment. FITC = O=C1OC2(c3ccc(O)cc3Oc3cc(O)ccc32)c2ccc(NC(=S)*)cc21

Key:
erythroid cells = experiment: Uptake of labelled transferrin receptor-binding peptide into erythroid cells, fluorescence microscopy; format: cell-based; details: added at day M2, about 1 mg/ml, 72 hours, 37 degrees
Description: Uptake of a transferrin-binding peptide was also tested. Wild-type CD34+ cells were differentiated as described herein. At day M2 of maturation/differentiation, FITC-LC-HAIYPRH (a fluorescently labelled peptide that binds the transferrin receptor) was added to a culture of about 0.5×10^6 cells at about 1 mg/ml. The labeled peptide was obtained from Anapsec. The cells were cultured in the presence of the labeled peptide for 72 hours at 37 degrees. Internalization of the FITC-LC-HAIYPRH labeled polypeptide by erythroid cells was confirmed by fluorescence microscopy.

[1] = test system: erythroid cells undergoing maturation; experiment: Uptake of Alexa488-labeled transferrin by erythroid cells during maturation; format: cell-based; details: 1 mg/ml in complete media, 0-24 hours, 37 or 4 degrees; days M1, M4, M5, M6
Description: In this example, transferrin receptor (CD71; also referred to herein as TRF) was evaluated for internalization into erythroid cells undergoing maturation. Briefly, wild-type CD34+ cells were differentiated as described herein. Samples of about 0.5×10^6 cells were taken on days M1, M4, M5, and M6 of maturation. […] The cells were incubated with the TRF-Alexa488 at a concentration of 1 mg/ml in complete media for 0-24 hours at 37 degrees or 4 degrees as indicated in FIG. 2.

FITC-LC-HAIYPRH: a fluorescently labelled peptide that binds the transferrin receptor, obtained from Anapsec ({FITC-LC}-HAIYPRH)
Internalization of labeled polypeptide by erythroid cells (erythroid cells): confirmed

TFR-Alexa488: Alexa488-labeled transferrin obtained from Thermo Fisher Scientific (#T13342)
Transferrin internalization [1]: active throughout the maturation phase
